Experimental findings from patent US5525595A, “3- or 4-glycosyloxybenzopyran derivative and antiallergic agent containing the derivative as active ingredient” (priority 1993, dated 1996) are described below.

Assay [1] concerns homologous passive cutaneous anaphylaxis (PCA) reaction. The assay can be described thus: Effect on homologous passive cutaneous anaphylaxis (PCA) reaction in rats. It is filed as in vivo, rats (Male wistar rats). To be noted: for Inhibition (%) of PCA reaction, compared compounds: Comparative Test Example 1, Table 5, compared compounds of EP-A-0598117; for inhibition in vivo at 100 mg/kg: Rattus norvegicus, 0.5 h. As for the experimental part: This experimental animal model is caused by immediate type allergic reaction, namely, antigen-antibody reaction. In the following, the method of this pharmacological test will be explained.
Method: Male wistar rats (9 weeks old) were intradermally administered 0.05 ml of anti-serum against trinitrophenylated ascaris (TNP-As) into two sites on the shaved dorsal skin. 48 hours later, 3-glycosyloxybenzopyran derivatives and 4-glycosyloxybenzopyran derivatives (test compounds) suspended in 0.5% sodium carboxymethylcellulose (CMCNa) were given orally at a dose of 100 mg/kg to the animals. 1 hour after administration of Test compounds, the animals were induced anaphylaxis by injection of saline (1 ml) dissolving 5 mg of Evans Blue and 1 mg of TNP-As into the tail vein of the animals. 30 minutes after induction of anaphylaxis, animals were anesthetized by ether and killed by bleeding, and were flayed dorsal skin. The leakage of dye was assessed by measuring the diameter (mean of shortest and longest diameter) of the blue spot on the inside surface of dorsal skin. As vehicle control group, only 0.5% CMCNa solution was administered orally, and as positive control group, Tranilast suspended in 0.5% CMCNa were administered orally at a dose of 100 mg/kg to the animals with the same method as the test compounds groups. Each experimental group consisted of 5 rats. [formula] In equation 1: A: leakage of dye in vehicle control group
B: leakage of dye in test compound group or in positive control group
The anti-allergic activity of the compounds of the present invention were compared with that of analogous compounds which were published in the Patent (EP-A-0598117) by PCA reaction. This pharmacological test was performed according to the method described in Test Example 1.

For assay [2], the system named is contact dermatitis induced by picryl chloride. Put plainly: Effect on contact dermatitis induced by picryl chloride in mice (delayed type hypersensitization). It is filed as in vivo. On the procedure: The delayed type hypersensitization is inhibited by steroid, but can not be effected by known anti-allergic agents. In the following, the method of the pharmacological test will be explained.
Method: Mice, shaved their abdominal skin on previous day, were immunized by applying 0.1 ml of acetone containing 7 mg of picryl chloride to the skin of the abdomen. 7 days after immunization, the thickness of the ear was measured with a dial thickness gauge, then mice were challenged by painting 5 μl of 1% picryl chloride olive oil solution to each side skin of left ear. 24 hours after challenge, the thickness of the left ear was measured again and the increase (%) of thickness was calculated according to equation 2. The compounds of the present invention (test compounds) suspended in 0.5% CMCNa were forcibly administered orally at a dose of 100 mg/kg at 1 hour before and 16 hours after challenge. As vehicle control group, only 0.5% CMCNa solution were administered orally, and as positive control group, Prednisolone, steroid hormone, and Tranilast were administered orally at the doses of 10 mg/kg and 100 mg/kg, respectively.
Increase (%)=(A-B)/B×100 (Equation 2)
A: thickness of the ear at 24 hours after challenge
B: thickness of the ear before challenge
Inhibition(%)=(C-D)/C×100 (equation 3)
C: The increase (%) in vehicle control group
D: The increase (%) in test compounds group or positive control group

The test system of assay [3] is airway resistance in experimental asthma model. The assay can be described thus: Effect on experimental asthma model in guinea pigs. The following applies: 100 mg/kg oral, OVA challenge, guinea pigs, Table 7; for inhibition in vivo at 100 mg/kg: Cavia porcellus. It is filed as in vivo, guinea pigs (Male hadley). As for the experimental part:
The asthma is typical allergic disease and we carried out this pharmacological test by well known experimental asthma model in guinea pigs in order to confirm that the compounds of the present invention suppress the asthma. In the following, the method of the pharmacological test will be explained.
Method: Male hadley guinea pigs were immunized by intraperitoneal injection of saline (1 ml) containing 5 mg of ovalbumine (OVA) three times at interval of one week. 2 weeks after final immunization, the animals were challenged by inhalation of 1% OVA-saline solution for 1 minute and then the airway resistance of the animals were measured for 30 minutes with PULMOS-1 (Medical Interface Project Station Inc.) after the inhalation. The compounds of the present invention (test compounds) suspended in 0.5% CMCNa were given orally at a dose of 100 mg/kg. As positive control group, Disodium Cromoglicate (DSCG), well known anti-allergic agent, in saline were injected at a dose of 20 mg/kg into the vein of the animals. As vehicle control group, only 0.5% CMCNa solution were given orally. The inhibition (%) of the airway resistance in vehicle control group was calculated according to equation 5 and the result was shown in Table 7. Each experimental group consisted of 5 guinea pigs. [formula] In equation 5: A: Maximum airway resistance in vehicle control group
B: Maximum airway resistance in test compounds group or positive control group

Setting [4] is: 100 mg/kg oral, 1 hour before antigen, rats, Table 3.
Where [5] appears, read: Mus musculus, 100 mg/kg oral, ear thickness 24 hours after challenge, Table 6, read-out: Inhibition (%) against the increase of ear thickness.

On to `COc1ccc2c(O)c(OC)c(=O)oc2c1` [Compared compound 1, 4-hydroxy-3,7-dimethoxy-2H-1-benzopyran-2-one, reference compound], for which the “Inhibition (%) of PCA reaction, compared compounds” value (shortened to “Inhibition (%) … compared compounds”) in assay [1] was determined as 28.9%.

Take `CCCCCCCCOc1ccc2c(O)c(OC)c(=O)oc2c1` [Compared compound 2, 3-methoxy-4-hydroxy-7-octyloxy-2H-1-benzopyran-2-one, reference compound]: the “Inhibition (%) … compared compounds” value in assay [1] is reported as 32.8%.

As for `COc1ccc2c(OC)c(O)c(=O)oc2c1` [Compared compound 3, 3-hydroxy-4,7-dimethoxy-2H-1-benzopyran-2-one, reference compound], the “Inhibition (%) … compared compounds” value in assay [1] stood at 30.6%.

In the case of `CCCCCCCCCCOc1ccc2c(OC)c(O)c(=O)oc2c1` [Compared compound 4, 3-hydroxy-4-methoxy-7-decyloxy-2H-1-benzopyran-2-one, reference compound], the “Inhibition (%) … compared compounds” value in assay [1] is recorded as 26.4%.

With `C[C@]12C=CC(=O)C=C1CC[C@@H]1[C@@H]2[C@@H](O)C[C@@]2(C)[C@H]1CC[C@]2(O)C(=O)CO` [Prednisolone, reference compound], in assay [2] (Mus musculus, po, 24 h, read-out: Inhibition (%) against the increase of ear thickness), the inhibition in vivo at 10 mg/kg worked out at 63.5%.

For `COc1ccc(/C=C/C(=O)Nc2ccccc2C(=O)O)cc1OC` [Tranilast, reference compound], the inhibition in vivo at 100 mg/kg in assay [1] (setting [4]) turned out to be 56.2%; in assay [2] (setting [5]), 11.5%. In assay [2] (100 mg/kg oral, in words), the “inhibition of delayed type hypersensitization” value is “did not inhibit delayed type hypersensitization”.

In the case of `COc1ccc2c(OCc3ccccc3)c(O[C@@H]3O[C@H](COC(C)=O)[C@@H](OC(C)=O)[C@H](OC(C)=O)[C@H]3OC(C)=O)c(=O)oc2c1` [compound 3, 7-methoxy-4-benzyloxy-3-(tetra-O-acetyl-β-D-glucopyranosyloxy)-2H-1-benzopyran-2-one], the inhibition in vivo at 100 mg/kg in assay [1] (setting [4]) came out at 43.5%; in assay [2] (setting [5]), 40.5%; in assay [3], 40%.

On to `COc1ccc2c(O)c(O[C@@H]3O[C@H](COC(C)=O)[C@@H](OC(C)=O)[C@H](OC(C)=O)[C@H]3OC(C)=O)c(=O)oc2c1` [compound 4, 7-methoxy-4-hydroxy-3-(tetra-O-acety-β-D-glucopyranosyloxy)-2H-1-benzopyran-2-one], for which the inhibition in vivo at 100 mg/kg in assay [1] (setting [4]) is 40.2%; in assay [2] (setting [5]) it was 46.3%; in assay [3], 48.3%.

As for `COc1ccc2c(O)c(O[C@@H]3O[C@H](CO)[C@@H](O)[C@H](O)[C@H]3O)c(=O)oc2c1` [compound 5, 7-methoxy-4-hydroxy-3-(β-D-glucopyranosyloxy)-2H-1-benzopyran-2-one], the figures for the inhibition in vivo at 100 mg/kg in assay [1] (setting [4]), in assay [2] (setting [5]) and in assay [3] were 48.7%, 51.2% and 62%, respectively.

For `COc1ccc2c(OCc3ccccc3)c(O[C@@H]3O[C@H](COC(C)=O)[C@@H](OC(C)=O)[C@H](OC(C)=O)[C@@H]3OC(C)=O)c(=O)oc2c1` [compound 6, 7-methoxy-4-benzyloxy-3-(tetra-O-acetyl-β-D-mannopyranosyloxy)-2H-1-benzopyran-2-one], the “Inhibition (%) of PCA reaction” value in assay [1] (setting [4]) amounted to 42.3%. Moreover, the “Inhibition (%) against the increase of ear thickness” value in assay [2] (100 mg/kg oral, ear thickness 24 hours after challenge, Table 6) is recorded as 41.9%. Moreover, the “Inhibition (%) of the airway resistance” value in assay [3] is reported as 38.5%.

On to `COc1ccc2c(OCc3ccccc3)c(O[C@@H]3O[C@H](COC(C)=O)[C@H](OC(C)=O)[C@H](OC(C)=O)[C@H]3OC(C)=O)c(=O)oc2c1` [compound 7, 7-methoxy-4-benzyloxy-3-(tetra-O-acetyl-β-D-galactopyranosyloxy)-2H-1-benzopyran-2-one], for which the inhibition in vivo at 100 mg/kg in assay [1] (setting [4]) amounted to 41.1%; in assay [2] (setting [5]), 40.3%; in assay [3], 43.7%.

Turning to `COc1ccc2c(O)c(O[C@H]3O[C@H](COC(C)=O)[C@@H](OC(C)=O)[C@H](OC(C)=O)[C@@H]3OC(C)=O)c(=O)oc2c1` [compound 8, 7-methoxy-4-hydroxy-3-(tetra-O-acetyl-α-D-mannopyranosyloxy)-2H-1-benzopyran-2-one], the inhibition in vivo at 100 mg/kg in assay [1] (setting [4]) is 45.2%; in assay [2] (setting [5]), 45.3%; in assay [3], 46.7%.

Turning to `COc1ccc2c(O)c(O[C@@H]3O[C@H](COC(C)=O)[C@H](OC(C)=O)[C@H](OC(C)=O)[C@H]3OC(C)=O)c(=O)oc2c1` [compound 9, 7-methoxy-4-hydroxy-3-(tetra-O-acetyl-β-D-galactopyranosyloxy)-2H-1-benzopyran-2-one], the inhibition in vivo at 100 mg/kg in assay [1] (setting [4]) worked out at 51.3%; in assay [2] (setting [5]), 50.1%; in assay [3], 58.4%.

On to `COc1ccc2c(O)c(O[C@H]3O[C@H](CO)[C@@H](O)[C@H](O)[C@@H]3O)c(=O)oc2c1` [compound 10, 7-methoxy-4-hydroxy-3-(α-D-mannopyranosyloxy)-2H-1-benzopyran-2-one], for which the figures for the inhibition in vivo at 100 mg/kg in assay [1] (setting [4]), in assay [2] (setting [5]) and in assay [3] were 50.3%, 47.5% and 49%, respectively.

With `COc1ccc2c(O)c(O[C@@H]3O[C@H](CO)[C@H](O)[C@H](O)[C@H]3O)c(=O)oc2c1` [compound 11, 7-methoxy-4-hydroxy-3-(β-D-galactopyranosyloxy)-2H-1-benzopyran-2-one], the values for the inhibition in vivo at 100 mg/kg in assay [1] (setting [4]), in assay [2] (setting [5]) and in assay [3] were 52.1%, 53.3% and 63.3%, respectively.

With `CC(=O)Oc1ccc2c(OCc3ccccc3)c(O[C@@H]3O[C@H](COCc4ccccc4)[C@@H](OCc4ccccc4)[C@H](OCc4ccccc4)[C@H]3OCc3ccccc3)c(=O)oc2c1` [compound 12, 4-benzyloxy-7-acetoxy-3-(tetra-O-benzyl-β-D-glucopyranosyloxy)-2H-1-benzopyran-2-one], the inhibition in vivo at 100 mg/kg in assay [1] (setting [4]) was 41.3%; in assay [2] (setting [5]), 40.8%; in assay [3], 39.2%.

For the compound `CC(=O)Oc1ccc2c(O)c(O[C@@H]3O[C@H](CO)[C@@H](O)[C@H](O)[C@H]3O)c(=O)oc2c1` [compound 13, 7-acetoxy-4-hydroxy-3-(β-D-glucopyranosyloxy)-2H-1-benzopyran-2-one], the inhibition in vivo at 100 mg/kg in assay [1] (setting [4]) worked out at 58.7%; in assay [2] (setting [5]) it was 50.4%; in assay [3], 57.7%.

`O=c1oc2cc(O)ccc2c(O)c1O[C@@H]1O[C@H](CO)[C@@H](O)[C@H](O)[C@H]1O` [compound 14]: the inhibition in vivo at 100 mg/kg came to 50.2% in assay [1] (setting [4]), 47.5% in assay [2] (setting [5]) and 52.3% in assay [3].

Consider `CCCCOc1ccc2c(O)c(O[C@@H]3O[C@H](CO)[C@@H](O)[C@H](O)[C@H]3O)c(=O)oc2c1` [compound 15], for which the inhibition in vivo at 100 mg/kg turned out to be 60.4% in assay [1] (setting [4]), 58.5% in assay [2] (setting [5]) and 73.6% in assay [3].
